Assay results reported in US10836789B2, “Inhibitors of glucocorticoid receptor” (ORIC Pharmaceuticals, Inc., priority 2016, dated 2020).

Tests used:
[1] = molecular target: T1, GR (Homo sapiens, UniProt P04150); test: GR luciferase antagonist assay (CHO/GR/MMTV Luciferase cells); type: cell-based; details: 10 nM Dexamethasone final, 16-18 h
T1 construct: expressed in transfected cells; host or cells: CHO cells carrying GR and an MMTV-luciferase reporter
T1 sequence (P04150 1-777): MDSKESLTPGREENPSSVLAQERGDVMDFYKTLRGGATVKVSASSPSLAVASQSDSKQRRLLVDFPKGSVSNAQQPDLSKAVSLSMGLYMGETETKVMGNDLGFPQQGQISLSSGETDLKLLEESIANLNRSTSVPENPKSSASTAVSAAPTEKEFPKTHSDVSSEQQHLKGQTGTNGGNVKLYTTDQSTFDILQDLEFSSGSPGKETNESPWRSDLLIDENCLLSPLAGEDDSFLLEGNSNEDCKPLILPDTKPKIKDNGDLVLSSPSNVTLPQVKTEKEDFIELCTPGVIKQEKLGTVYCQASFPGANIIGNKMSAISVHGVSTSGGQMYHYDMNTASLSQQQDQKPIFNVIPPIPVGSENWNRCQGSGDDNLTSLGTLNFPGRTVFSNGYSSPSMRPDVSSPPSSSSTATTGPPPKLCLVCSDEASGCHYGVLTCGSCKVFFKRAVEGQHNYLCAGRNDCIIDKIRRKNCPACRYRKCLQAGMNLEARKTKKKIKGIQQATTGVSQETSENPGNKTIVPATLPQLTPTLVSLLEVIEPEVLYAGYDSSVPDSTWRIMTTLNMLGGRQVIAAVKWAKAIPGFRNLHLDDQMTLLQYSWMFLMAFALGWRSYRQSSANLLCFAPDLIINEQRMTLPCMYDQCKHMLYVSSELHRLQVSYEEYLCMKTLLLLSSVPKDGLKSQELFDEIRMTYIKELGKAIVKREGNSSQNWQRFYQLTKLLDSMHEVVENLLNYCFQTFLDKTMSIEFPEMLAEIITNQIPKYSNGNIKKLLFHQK
Protocol: Example A: […] GR Luciferase Assay Cell Line: CHO/GR/MMTV Luciferase Culture Media: DMEM (with phenol red)+10% FBS Assay Media: DMEM (without phenol red)+10% CSS A 1×10 cm plate of cells was split into 2×15 cm plates in Assay Media (CSS). After 4 days, the cells in the Assay Media were collected and counted. Antagonist Assay: 1.5×10^4 cells per well were plated in a 384-well white walled TC plate in 20 ul of Assay Media containing 12.5 nM Dexamethasone (final concentration=10 nM). The plates were covered with film to avoid evaporation and placed in a TC incubator. Media/drug dilutions were prepared in Assay Media in 96-well sterile plates. 100 ul of Assay Media was distributed in aliquots into 96-well plates with an 8-Channel pipette (20-200 ul). 0.5 ul of 1000× concentration of compounds were added to the plates with 8-Channel pipette (0.5-10 ul). The plates were shaken for 15 seconds to mix. The film was removed from the 384-well plates with assay cells. 5 ul of media/drug dilutions were added to appropriate wells. The plates were covered with film to avoid evaporation and placed in a TC incubator overnight. After 16-18 h in the incubator, the plates were removed and sat at room temperature for 10 minutes to equilibrate. The Reagent Dispenser was setup to distribute 25 ul aliquots of OneGlo Luciferase Reagent (at room temperature) to each well of the 384-well plate using standard cassette. After OneGlo was added to the plates, the plates were shaken briefly, then incubated in the dark at room temperature for about 3 minutes. The plates were read using a Tecan or Promega luminometer. The ability of the compounds disclosed herein to inhibit GR activity was quantified and the respective IC50 value was determined. Table 3 provides the cellular IC50 values of various substituted steroidal compounds disclosed herein.

[2] = test system: AR; test: AR agonism assay in LNAR reporter cell line; type: cell-based; details: for Relative Maximum Response to Mifepristone: LNAR cells (overexpressed AR, 4XARE-Luc), 10% CSS, 18-24 hrs, Mifepristone maximum response set to 1
Protocol: Example B: In Vitro AR Agonism Assay
The AR agonism assay was done in the LNAR reporter cell line which has overexpressed AR and 4XARE-Luc genes. This cell line is sensitive to even minor partial AR agonism activity in hormone-deprived media (CSS). The assays were done in RPMI (without phenol red)+10% CSS using 6000 LNAR cells/well in 384-well plates and compounds were incubated with cells in […] incubator for 18-24 hrs. OneGlo reagent (25 uL/well) was added and plates were read with luminometer within 3 minutes.
To gauge the AR partial agonism activity, Mifepristone is included as a standard in the assay. AR agonism assay results are quantified by determining the ratio of the maximum response of individual compounds to the maximum response of Mifepristone (arbitrarily set to 1). Values of Table 4 are reported as Relative Maximum Response to Mifepristone. This general trend of AR agonism was shown for the class of compounds described herein.

| Structure (SMILES) | IC50 [1] [nM] | Relative Maximum Response to Mifepristone [2] | partial AR agonism ([2]; in concentrations as low as 10 nM) |
| --- | --- | --- | --- |
| CC(C)N(C)c1ccc([C@H]2C[C@@]3(C)[C@@H](CC(C)[C@@]3(O)C#CC(C)(C)C)[C@@H]3CCC4=CC(=O)CC[C@@H]4[C@H]32)cc1 (single isomer, unassigned) [Compound 8] | ≤ 100 | A (A: ≤ 0.4) | – |
| CC(C)(C)C#C[C@]1(O)CC[C@H]2[C@@H]3CCC4=CC(=O)CC[C@@H]4[C@H]3[C@@H](c3ccc(N4CCCC4)cc3)C[C@@]21C [Compound 1, (8R,9S,10R,11S,13S,14S,17S)-17-(3,3-Dimethylbut-1-yn-1-yl)-17-hydroxy-13-methyl-11-(4-(pyrrolidin-1-yl)phenyl)-1,2,6,7,8,9,10,11,12,13,14,15,16,17-tetradecahydro-3H-cyclopenta[a]phenanthren-3-one] | ≤ 100 | A (A: ≤ 0.4) | – |
| CC(C)(C)C#C[C@]1(O)CC[C@H]2[C@@H]3CCC4=CC(=O)CC[C@@H]4[C@H]3[C@@H](c3ccc4c(c3)OCCO4)C[C@@]21C [Compound 3, (8R,9S,10R,11S,13S,14S,17S)-11-(2,3-Dihydrobenzo[b][1,4]dioxin-6-yl)-17-(3,3-dimethylbut-1-yn-1-yl)-17-hydroxy-13-methyl-1,2,6,7,8,9,10,11,12,13,14,15,16,17-tetradecahydro-3H-cyclopenta[a]phenanthren-3-one] | ≤ 100 | – | – |
| CC(C)(C)C#C[C@]1(O)CC[C@H]2[C@@H]3CCC4=CC(=O)CC[C@@H]4[C@H]3[C@@H](c3ccc4c(c3)OCO4)C[C@@]21C [Compound 5, (8R,9S,10R,11S,13S,14S,17S)-11-(Benzo[d][1,3]dioxol-5-yl)-17-(3,3-dimethylbut-1-yn-1-yl)-17-hydroxy-13-methyl-1,2,6,7,8,9,10,11,12,13,14,15,16,17-tetradecahydro-3H-cyclopenta[a]phenanthren-3-one] | ≤ 100 | – | – |
| CCN(CC)c1ccc([C@H]2C[C@@]3(C)[C@@H](CC[C@@]3(O)C#CC(C)(C)C)[C@@H]3CCC4=CC(=O)CC[C@@H]4[C@H]32)cc1 [Compound 9, (8R,9S,10R,11S,13S,14S,17S)-11-(4-(Diethylamino)phenyl)-17-(3,3-dimethylbut-1-yn-1-yl)-17-hydroxy-13-methyl-1,2,6,7,8,9,10,11,12,13,14,15,16,17-tetradecahydro-3H-cyclopenta[a]phenanthren-3-one] | ≤ 100 | – | – |
| CCC#C[C@]1(O)CC[C@H]2[C@@H]3CCC4=CC(=O)CC[C@]4(C)[C@H]3[C@@H](c3ccc(NC)cc3)C[C@@]21C [Compound 12] | > 100 | – | – |
| CC(C)(C)C#C[C@]1(O)CC[C@H]2[C@@H]3CCC4=CC(=O)CC[C@@H]4[C@H]3[C@@H](c3ccc(N)cc3)C[C@@]21C [Compound 13, (8R,9S,10R,11S,13S,14S,17S)-11-(4-Aminophenyl)-17-(3,3-dimethylbut-1-yn-1-yl)-17-hydroxy-13-methyl-1,2,6,7,8,9,10,11,12,13,14,15,16,17-tetradecahydro-3H-cyclopenta[a]phenanthren-3-one] | ≤ 100 | – | – |
| CC(C)N(C)c1ccc([C@H]2C[C@@]3(C)[C@@H](CC[C@@]3(O)C#CC(C)(C)C)[C@@H]3CCC4=CC(=O)CC[C@@H]4[C@H]32)cc1F [Compound 15, (8R,9S,10R,11S,13S,14S,17S)-17-(3,3-Dimethylbut-1-yn-1-yl)-11-(3-fluoro-4-(isopropyl(methyl)amino)phenyl)-17-hydroxy-13-methyl-1,2,6,7,8,9,10,11,12,13,14,15,16,17-tetradecahydro-3H-cyclopenta[a]phenanthren-3-one] | ≤ 100 | – | – |
| CC(C)N(C)c1ccc([C@H]2C[C@@]3(C)[C@@H](CC[C@@]3(O)C#CC(C)(C)C)[C@@H]3CCC4=CC(=O)CC[C@]4(C)[C@H]32)cc1 [Compound 16] | > 100 | – | – |
| CC#C[C@]1(O)CC[C@H]2[C@@H]3CCC4=CC(=O)CC[C@]4(C)[C@H]3[C@@H](c3ccc(NC)cc3)C[C@@]21C [Compound 23] | > 100 | – | – |
| CC(=O)N1CCN(c2ccc([C@H]3C[C@@]4(C)[C@@H](CC[C@@]4(O)C#CC(C)(C)C)[C@@H]4CCC5=CC(=O)CC[C@@H]5[C@H]43)cc2)CC1 [Compound 24] | ≤ 100 | – | – |
| CC#C[C@]1(O)CC[C@H]2[C@@H]3CCC4=CC(=O)CC[C@]4(C)[C@H]3[C@@H](c3ccc(N)cc3)C[C@@]21C [Compound 26, (8S,9R,10R,11S,13S,14S,17S)-11-(4-Aminophenyl)-17-hydroxy-10,13-dimethyl-17-(prop-1-yn-1-yl)-1,2,6,7,8,9,10,11,12,13,14,15,16,17-tetradecahydro-3H-cyclopenta[a]phenanthren-3-one] | > 100 | – | – |
| CC(C)(C)C#C[C@]1(O)CC[C@H]2[C@@H]3CCC4=CC(=O)CC[C@@H]4[C@H]3[C@@H](c3ccc(N4CCN(S(C)(=O)=O)CC4)cc3)C[C@@]21C [Compound 27] | ≤ 100 | – | – |
| C[C@]12CCC(=O)C=C1CC[C@@H]1[C@@H]2[C@@H](c2ccc(N3CCCC3)cc2)C[C@@]2(C)[C@H]1CC[C@@]2(O)C#CC1CC1 [Compound 28] | > 100 | – | – |
| C[C@]12CCC(=O)C=C1CC[C@@H]1[C@@H]2[C@@H](c2ccc(N3CCCC3)cc2)C[C@@]2(C)[C@H]1CC[C@@]2(O)C#CC(F)(F)F [Compound 29] | ≤ 100 | – | – |
| CC#C[C@]1(O)CC[C@H]2[C@@H]3CCC4=CC(=O)CC[C@]4(C)[C@H]3[C@@H](c3ccc(NC(C)C)cc3)C[C@@]21C [Compound 30, (8S,9R,10R,11S,13S,14S,17S)-17-Hydroxy-11-(4-(isopropylamino)phenyl)-10,13-dimethyl-17-(prop-1-yn-1-yl)-1,2,6,7,8,9,10,11,12,13,14,15,16,17-tetradecahydro-3H-cyclopenta[a]phenanthren-3-one] | > 100 | – | – |
| CC#C[C@]1(O)CC[C@H]2[C@@H]3CCC4=CC(=O)CC[C@]4(C)[C@H]3[C@@H](c3ccc(-n4cccc4)cc3)C[C@@]21C [Compound 31, (8S,9R,10R,11S,13S,14S,17S)-11-(4-(1H-Pyrrol-1-yl)phenyl)-17-hydroxy-10,13-dimethyl-17-(prop-1-yn-1-yl)-1,2,6,7,8,9,10,11,12,13,14,15,16,17-tetradecahydro-3H-cyclopenta[a]phenanthren-3-one] | ≤ 100 | – | – |
| CC#C[C@]1(O)CC[C@H]2[C@@H]3CCC4=CC(=O)CCC4=C3[C@@H](c3ccc(N(C)C)cc3)C[C@@]21C [Mifepristone, reference compound] | – | – | strong partial AR agonism |
